From ChEMBL document CHEMBL1150542, “Enzymatic synthesis and antiviral ativity of 2-deoxy-2-fluoro-ribavirin” (Bioorg Med Chem Lett, 1996)
Activity calls are given as the source filed them.

What was measured:
[1] = test system: Human immunodeficiency virus 1; assay: Compound was tested for antiviral activity against HIV-1; Not active; format: functional
[2] = test system: Human alphaherpesvirus 3; assay: Compound was tested for antiviral activity against VZV; Not active; format: functional, organism-based
[3] = test system: Human alphaherpesvirus 2; assay: Compound was tested for antiviral activity against HSV-2; Not active; format: functional, organism-based
[4] = test system: MDCK; assay: Compound was tested for antiviral activity against influenza A in MDCK cells at concentration of 100 uM; Not active; format: functional, cell-based; conditions: Canis lupus familiaris
[5] = test system: MDCK; assay: Compound was tested for antiviral activity against influenza B in MDCK cells at concentration of 100 uM; Not active; format: functional, cell-based; conditions: Canis lupus familiaris
[6] = test system: Human betaherpesvirus 5; assay: Compound was tested for antiviral activity against HCMV; Not active; format: functional, organism-based

Measured: Activity

NC(=O)c1ncn([C@@H]2O[C@H](CO)C(O)[C@H]2F)n1 (single isomer, unassigned)
inactive: all assays above

NC(=O)c1ncn(C2O[C@H](CO)C(O)[C@H]2F)n1 (single isomer, unassigned)
inactive: all assays above
